Reference: ChEMBL document CHEMBL2311515, “Synthesis and evaluation of antibacterial activity of 7-alkyloxy-4,5-dihydro-imidazo[1,2-a]quinoline derivatives” (2013)
In brackets after ≈: the same amount, converted by molar mass.

Columns and labels:
Type in all cases: functional
Staphylococcus aureus = assay: Antibacterial activity against Staphylococcus aureus ATCC 29213 assessed as growth inhibition after 20 hrs by NCCLS broth microdilution method; conditions: ATCC 29213, 20 h
Escherichia coli = assay: Antibacterial activity against Escherichia coli ATCC 8739 assessed as growth inhibition after 20 hrs by NCCLS broth microdilution method; conditions: ATCC 8739, 20 h
Proteus vulgaris [1] = assay: Antibacterial activity against Proteus vulgaris ATCC 35659 assessed as growth inhibition after 20 hrs by NCCLS broth microdilution method; conditions: ATCC 35659, 20 h
Salmonella = assay: Antibacterial activity against Salmonella ATCC 14028 assessed as growth inhibition after 20 hrs by NCCLS broth microdilution method; conditions: ATCC 14028, 20 h
Pseudomonas aeruginosa = assay: Antibacterial activity against Pseudomonas aeruginosa ATCC 27853 assessed as growth inhibition after 20 hrs by NCCLS broth microdilution method; conditions: ATCC 27853, 20 h
Pasteurella sp. = assay: Antibacterial activity against Pasteurella ATCC 6529 assessed as growth inhibition after 20 hrs by NCCLS broth microdilution method; conditions: ATCC 6529, 20 h
Klebsiella pneumoniae = assay: Antibacterial activity against Klebsiella pneumoniae ATCC 10031 assessed as growth inhibition after 20 hrs by NCCLS broth microdilution method; conditions: ATCC 10031, 20 h
Proteus vulgaris [2] = assay: Ratio of amoxicillin MIC to compound MIC for Proteus vulgaris ATCC 35659
Proteus vulgaris [3] = assay: Ratio of ciprofloxacin MIC to compound MIC for Proteus vulgaris ATCC 35659

Fc1cccc(COc2ccc3c(c2)CCc2nccn2-3)c1 gave an MIC (Staphylococcus aureus) of 150 µg/mL (≈ 510 µM) and an MIC (Escherichia coli) of 50 µg/mL (≈ 170 µM).
Compound CCCCCCCCCCOc1ccc2c(c1)CCc1nccn1-2 has an MIC (Staphylococcus aureus) of 100 µg/mL (≈ 306 µM) and an MIC (Escherichia coli) of 50 µg/mL (≈ 153 µM).
With CCCCCOc1ccc2c(c1)CCc1nccn1-2 the MIC (Staphylococcus aureus) was 100 µg/mL (≈ 390 µM) and the MIC (Escherichia coli) was 50 µg/mL (≈ 195 µM).
With O=C(O)c1cn(C2CC2)c2cc(N3CCNCC3)c(F)cc2c1=O [CIPROFLOXACIN] the MIC (Proteus vulgaris [1]) was 128 µg/mL (≈ 386 µM), the MIC (Salmonella) was > 128 µg/mL and the MIC (Pseudomonas aeruginosa) was 4 µg/mL (≈ 12.1 µM). For the same compound, the MIC (Pasteurella sp.) was 128 µg/mL (≈ 386 µM) and the MIC (Klebsiella pneumoniae) was 4 µg/mL (≈ 12.1 µM).
For Clc1cccc(COc2ccc3c(c2)CCc2nccn2-3)c1, the MIC (Staphylococcus aureus) was 150 µg/mL (≈ 483 µM) and the MIC (Escherichia coli) was 50 µg/mL (≈ 161 µM).
Work on CCCCCCCCOc1ccc2c(c1)CCc1nccn1-2 yielded an MIC (Staphylococcus aureus) of 50 µg/mL (≈ 168 µM) and an MIC (Escherichia coli) of 25 µg/mL (≈ 83.8 µM).
Fc1ccccc1COc1ccc2c(c1)CCc1nccn1-2 was tested, and the MIC (Staphylococcus aureus) was 150 µg/mL (≈ 510 µM) and the MIC (Escherichia coli) was 50 µg/mL (≈ 170 µM).
In the case of Brc1cccc(COc2ccc3c(c2)CCc2nccn2-3)c1, the MIC (Staphylococcus aureus) was 100 µg/mL (≈ 282 µM) and the MIC (Escherichia coli) was 50 µg/mL (≈ 141 µM).
In the case of Clc1ccc(COc2ccc3c(c2)CCc2nccn2-3)cc1, the MIC (Staphylococcus aureus) was 50 µg/mL (≈ 161 µM) and the MIC (Escherichia coli) was 50 µg/mL (≈ 161 µM).
With CCCCOc1ccc2c(c1)CCc1nccn1-2 the MIC (Staphylococcus aureus) was 150 µg/mL (≈ 619 µM) and the MIC (Escherichia coli) was 50 µg/mL (≈ 206 µM).
Brc1ccc(COc2ccc3c(c2)CCc2nccn2-3)cc1 showed an MIC (Staphylococcus aureus) of 50 µg/mL (≈ 141 µM) and an MIC (Escherichia coli) of 25 µg/mL (≈ 70.4 µM).
COc1ccc(COc2ccc3c(c2)CCc2nccn2-3)cc1 showed an MIC (Staphylococcus aureus) of 100 µg/mL (≈ 326 µM) and an MIC (Escherichia coli) of 50 µg/mL (≈ 163 µM).
CCCOc1ccc2c(c1)CCc1nccn1-2 showed an MIC (Staphylococcus aureus) of 150 µg/mL (≈ 657 µM) and an MIC (Escherichia coli) of 50 µg/mL (≈ 219 µM).
Work on Cc1ccc(COc2ccc3c(c2)CCc2nccn2-3)cc1 yielded an MIC (Staphylococcus aureus) of 50 µg/mL (≈ 172 µM) and an MIC (Escherichia coli) of 25 µg/mL (≈ 86.1 µM).
With Fc1ccc(COc2ccc3c(c2)CCc2nccn2-3)cc1 the MIC (Staphylococcus aureus) was 50 µg/mL (≈ 170 µM) and the MIC (Escherichia coli) was 50 µg/mL (≈ 170 µM).
In the case of CCCCCCCCCOc1ccc2c(c1)CCc1nccn1-2, the MIC (Staphylococcus aureus) was 50 µg/mL (≈ 160 µM) and the MIC (Escherichia coli) was 50 µg/mL (≈ 160 µM).
c1ccc(COc2ccc3c(c2)CCc2nccn2-3)cc1 was tested, and the MIC (Staphylococcus aureus) was 200 µg/mL (≈ 724 µM) and the MIC (Escherichia coli) was 50 µg/mL (≈ 181 µM).
Clc1ccccc1COc1ccc2c(c1)CCc1nccn1-2 was tested, and the MIC (Staphylococcus aureus) was 150 µg/mL (≈ 483 µM) and the MIC (Escherichia coli) was 100 µg/mL (≈ 322 µM).
Brc1ccccc1COc1ccc2c(c1)CCc1nccn1-2 was tested, and the MIC (Staphylococcus aureus) was 100 µg/mL (≈ 282 µM) and the MIC (Escherichia coli) was 50 µg/mL (≈ 141 µM).
Compound CCCCCCCOc1ccc2c(c1)CCc1nccn1-2 has an MIC (Proteus vulgaris [1]) of 16 µg/mL (≈ 56.3 µM), an MIC (Salmonella) of 64 µg/mL (≈ 225 µM) and an MIC (Staphylococcus aureus) of 50 µg/mL (≈ 176 µM). The Ratio (Proteus vulgaris [2]) was 8, the Ratio (Proteus vulgaris [3]) was 8 and the MIC (Pseudomonas aeruginosa) was 16 µg/mL (≈ 56.3 µM). For the same compound, the MIC (Escherichia coli) was 0.5 µg/mL (≈ 1.76 µM), the MIC (Pasteurella sp.) was 2 µg/mL (≈ 7.03 µM) and the MIC (Klebsiella pneumoniae) was > 128 µg/mL.
In the case of CC1(C)S[C@@H]2[C@H](NC(=O)[C@H](N)c3ccc(O)cc3)C(=O)N2[C@H]1C(=O)O [AMOXICILLIN], the MIC (Proteus vulgaris [1]) was > 128 µg/mL, the MIC (Salmonella) was > 128 µg/mL and the MIC (Staphylococcus aureus) was 25 µg/mL (≈ 68.4 µM). The MIC (Pseudomonas aeruginosa) was 16 µg/mL (≈ 43.8 µM), the MIC (Escherichia coli) was 150 µg/mL (≈ 410 µM) and the MIC (Pasteurella sp.) was 16 µg/mL (≈ 43.8 µM). The MIC (Klebsiella pneumoniae) was > 128 µg/mL.
For CCCCCCOc1ccc2c(c1)CCc1nccn1-2, the MIC (Staphylococcus aureus) was 75 µg/mL (≈ 277 µM) and the MIC (Escherichia coli) was 16 µg/mL (≈ 59.2 µM).
